Laboratory results as given in patent publication US20130156819A1, “ISOLATION OF MESENCHYMAL STEM CELLS” (Baden-Württemberg Stiftung gGmbH, priority 2010, published 2013).
Square brackets hold non-standard residues; d marks the D form. Ends that are not written are not given here. Orn = NCCC[C@H](N)C(=O)O; DOA = not defined here; Doa = not defined here

How the values were obtained:
[1] = tested on: fibroblasts; test: Adhesion of fibroblasts to BSA-coupled peptide microarrays (MSA technology); assay type: cell-based, human; conditions: peptide coupled to bovine serum albumin, incubation two hours, FIG. 3
Experimental: (§1) The adhesion of cells to peptides was also measured using the MSA™ technology (see Kuschel et al., 2006) as above in example 1. Instead of the extracellular matrix proteins, however, peptides coupled to bovine serum albumin were printed in the form of microarrays (8×8 microspots) onto the nitrocellulose layer, and then the remaining surface was sealed. For incubation with cells, small silicone chambers were placed on the coated slides, and incubated with MSCs or fibroblasts. After incubation for two hours, the non-adherent cells were washed away.
(§2) Adherent cells were made visible on the white nitrocellulose film by staining with Coomassie Blue and were evaluated in a motorized photomicroscope: the number of blue cells or the color intensity per spot is measured and transferred to tables for evaluation.
(§3) Evaluation of these arrays using the semi-automatic photomicroscope gave the relative binding strength on PLL (standardized to 100%, positive control) and BSA (standardized to 0%, negative control) for the peptides tested in each case.

[2] = tested on: MSCs; test: Adhesion of MSCs to BSA-coupled peptide microarrays (MSA technology); assay type: cell-based, human; conditions: peptide coupled to bovine serum albumin, incubation two hours, FIG. 2
Experimental: as §1, §2, §3

[3] = tested on: human mesenchymal stem cells (MSC); test: Adherence of MSCs on immobilized matrix proteins (Multiple Substrate Array chip); assay type: cell-based; conditions: immobilized protein on MSA chip, 20 000 cells/test chamber, FIG. 1
Experimental: The adherence of human mesenchymal stem cells (MSC, samples 5 and 6 in FIG. 1) and human fibroblasts (samples 1 to 4 in FIG. 1) on matrix proteins was investigated in a comparative test. The investigation was carried out using a chip (Multiple Substrate Array (MSA®)), on which the proteins were immobilized. The procedure used as such was as described in Kuschel et al., “Cell adhesion profiling using extracellular matrix protein microarrays”, Biotechniques 40: 523-531 (2006).
MSCs were enriched from bone marrow by density gradient centrifugation, cultivated as an adherent population in MSC-expansion medium, and harvested. The differentiation potential was tested on an aliquot and adipogenic, chondrogenic and osteogenic differentiation was confirmed. Therefore the cells fulfill the physiological requirements for MSCs (M. Dominici et al. 2006, Cytotherapy, 8: 315 ff). […]
Fibroblasts were isolated from the synovial membrane and expanded as described (Aicher et al. 1994 J. Immunol. 152: 5940 ff). The cells were harvested, washed, counted and in each case 20 000/test chamber were investigated using MSA™ chip technology for adherence to proteins. […] Cells adhering to the proteins were fixed chemically and their nuclei were marked with dye, for quantitation of the number of adherent cells per microspot of protein. […]

Substance	adhesion of fibroblasts to the peptide [1]	adhesion of MSCs to the peptide [2]	binding of the MSCs to the protein compared with binding of fibroblasts [3]
GF-Orn-GER-OH (GF[Orn]GER-OH; N-terminus assumed; SMILES N=C(N)NCCC[C@H](NC(=O)[C@H](CCC(=O)O)NC(=O)CNC(=O)[C@H](CCCN)NC(=O)[C@H](Cc1ccccc1)NC(=O)CN)C(=O)O) [No. 1]	not that of fibroblasts	make the adhesion of MSCs possible	
KREDVY-COOH (KREDVY-OH; listed as Homo sapiens) [No. 21-COOH]	not that of fibroblasts	make the adhesion of MSCs possible	
DVISLYNFKHIY-OH (listed as Homo sapiens) [No. 16]	not that of fibroblasts	make the adhesion of MSCs possible	
GEFYFDLRLKGDK-OH (listed as Homo sapiens) [No. 5]	not that of fibroblasts	make the adhesion of MSCs possible	
YIIR-OH (listed as Homo sapiens) [No. 34]	not that of fibroblasts	make the adhesion of MSCs possible	
LRE-Doa-A-OH (LRE[Doa]A-OH; reading uncertain; also: printed as LRE-Doa-A-OH; listed as Homo sapiens) [No. 9-COOH]	not that of fibroblasts	make the adhesion of MSCs possible	
EILDV-OH (listed as Homo sapiens) [No. 22]	not that of fibroblasts	make the adhesion of MSCs possible	
WTPPRAQITGYRLTVGLTRR-OH (listed as Homo sapiens) [No. 30]	not that of fibroblasts	make the adhesion of MSCs possible	
GRGDSO-OH (GRGDS[Orn]-OH; N-terminus assumed; SMILES N=C(N)NCCC[C@H](NC(=O)CN)C(=O)NCC(=O)N[C@@H](CC(=O)O)C(=O)N[C@@H](CO)C(=O)N[C@@H](CCCN)C(=O)O; listed as Homo sapiens) [No. 11]	not that of fibroblasts	make the adhesion of MSCs possible	
LRE-OH (Leu-Arg-Glu-OH; listed as Homo sapiens) [No. 9]	not that of fibroblasts	make the adhesion of MSCs possible	
YIIR-DOA-A-OH (YIIR[DOA]A-OH; reading uncertain; also: printed as YIIR-DOA-A-OH; listed as Homo sapiens) [No. 34-COOH]	not that of fibroblasts	make the adhesion of MSCs possible	
DRVPHSRNSIT-OH (listed as Homo sapiens) [No. 20]	not that of fibroblasts	make the adhesion of MSCs possible	
LAIKNDNLVYVY-OH (listed as Homo sapiens) [No. 15]	not that of fibroblasts	make the adhesion of MSCs possible	
EILDV-COOH (EILDV-OH; listed as Homo sapiens) [No. 22-COOH]	not that of fibroblasts	make the adhesion of MSCs possible	
KRSR-DOA-A-OH (KRSR[DOA]A-OH; reading uncertain; also: printed as KRSR-DOA-A-OH; listed as Homo sapiens) [No. 37b]	not that of fibroblasts	make the adhesion of MSCs possible	
KREDVY-OH (listed as Homo sapiens) [No. 21]	not that of fibroblasts	make the adhesion of MSCs possible	
tenascin-C: oligomeric glycoprotein of the extracellular matrix, immobilized on the chip			firmer
